In US6737383B1, “Herbicidal oxadiazolidines” (priority 1999, dated 2004):

What was measured:
cocklebur = assay: Test B pre/postemergence cocklebur; type: in vivo, Xanthium strumarium
Summary of the method: (§1)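 Response is a visual 0-to-10 score relative to untreated plants, where 0 means no effect and 10 means complete control, taken twelve to sixteen days after application. Treatments went onto soil at planting and onto foliage of 1- to 4-leaf plants, using a surfactant-containing non-phytotoxic solvent.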

pigweed = assay: Test B pre/postemergence pigweed; type: in vivo, Amaranthus retroflexus
Summary of the method: as §1

velvetleaf = assay: Test B pre/postemergence velvetleaf; type: in vivo, Abutilon theophrasti
Summary of the method: as §1

soybean = assay: Test B pre/postemergence soybean; type: in vivo, Glycine max
Summary of the method: as §1

giant foxtail = assay: Test B pre/postemergence giant foxtail; type: in vivo, Setaria faberii
Summary of the method: as §1

smallflower flatsedge = assay: Test B flood test smallflower flatsedge; type: in vivo, Cyperus difformis
Summary of the method: (§2)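 Each value is a visual injury score relative to controls, with 10 meaning complete control and 0 no effect. Evaluation took place twelve to sixteen days after the 2-leaf-stage plants were treated and kept in the greenhouse.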

rape = assay: Test B pre/postemergence rape; type: in vivo, Brassica napus
Summary of the method: as §1

surinam grass = assay: Test B pre/postemergence surinam grass; type: in vivo, Brachiaria decumbens
Summary of the method: as §1

sugar beet = assay: Test B pre/postemergence sugar beet; type: in vivo, Beta vulgaris
Summary of the method: as §1

morningglory = assay: Test B pre/postemergence morningglory; type: in vivo, Ipomoea hederacea
Summary of the method: as §1

wild oat = assay: Test B pre/postemergence wild oat; type: in vivo, Avena fatua
Summary of the method: as §1

bedstraw = assay: Test B pre/postemergence bedstraw; type: in vivo, Galium aparine; conditions: Preemergence, Rate 62 g/ha; scale 0 to 10 (0 no effect, 10 complete control)
Summary of the method: as §1

crabgrass = assay: Test B pre/postemergence crabgrass; type: in vivo, Digitaria sanguinalis
Summary of the method: as §1

duck salad = assay: Test B flood test duck salad; type: in vivo, Heteranthera limosa
Summary of the method: as §2

corn = assay: Test B pre/postemergence corn; type: in vivo, Zea mays
Summary of the method: as §1

rice = assay: Test B flood test rice; type: in vivo, Oryza sativa
Summary of the method: as §2

purple nutsedge = assay: Test B pre/postemergence purple nutsedge; type: in vivo, Cyperus rotundus
Summary of the method: as §1

blackgrass = assay: Test B pre/postemergence blackgrass; type: in vivo, Alopecurus myosuroides
Summary of the method: as §1

wheat = assay: Test B pre/postemergence wheat; type: in vivo, Triticum aestivum
Summary of the method: as §1

bamyardgrass = assay: Test B flood test barnyardgrass; type: in vivo, Echinochloa crus-galli
Summary of the method: as §2

[1] = Postemergence, Rate 62 g/ha, scale of 0 to 10, 0 is no effect, 10 is complete control
[2] = Postemergence, Rate 125 g/ha, scale of 0 to 10 where 0 is no effect and 10 is complete control
[3] = Postemergence, Rate 250 g/ha, scale of 0 to 10, 0 is no effect, 10 is complete control
[4] = Postemergence, Rate 500 g/ha, scale of 0 to 10 where 0 is no effect and 10 is complete control
[5] = Preemergence, Rate 62 g/ha, scale 0 to 10 (0 no effect, 10 complete control)
[6] = Preemergence, Rate 125 g/ha, scale of 0 to 10 where 0 is no effect and 10 is complete control
[7] = Preemergence, Rate 500 g/ha, scale of 0 to 10 where 0 is no effect and 10 is complete control
[8] = Rate 62 g/ha, flood test species, Pre-emergence, visual evaluation after twelve to sixteen days
[9] = Rate 125 g/ha, under heading Pre-emergence, flood test species, visual evaluation after twelve to sixteen days
[10] = Rate 250 g/ha, Pre-emergence (flood test species), scale 0 to 10, 0 is no effect, 10 is complete control
[11] = Rate 500 g/ha, Pre-emergence section of Table B, 0 to 10 scale (0 no effect, 10 complete control)

CCc1nc(C)c(C(C)n2c(=O)on(C(=O)N(c3ccc(Cl)cc3)C(C)C)c2=O)s1 (stereo not drawn) [Compound 590]
Cocklebur plant response rating (cocklebur; [1]): 0 | Plant response rating, Cocklebur (cocklebur; [2]): 0 | Cocklebur plant response rating (cocklebur; [3]): 0 | Plant response rating, Cocklebur (cocklebur; [4]): 0 | Cocklebur plant response rating (cocklebur; [5]): 0 | Cocklebur plant response rating (cocklebur; [6]): 0 | Cocklebur plant response rating (0 to 10 scale) (cocklebur; Preemergence, Rate 250 g/ha): 0 | Cocklebur plant response rating (cocklebur; [7]): 0 | Plant response rating, Redroot pigweed (pigweed; [2]): 0 | Redroot pigweed plant response rating (pigweed; [3]): 0 | Plant response rating, Redroot pigweed (pigweed; [4]): 0 | Redroot pigweed plant response rating (pigweed; [5]): 0 | Redroot pigweed plant response rating (pigweed; [6]): 0 | Redroot pigweed plant response rating (pigweed; [7]): 0 | Plant response rating, Velvetleaf (velvetleaf; [2]): 0 | Velvetleaf plant response rating (velvetleaf; [3]): 2 | Plant response rating, Velvetleaf (velvetleaf; [4]): 2 | Velvetleaf plant response rating (velvetleaf; [5]): 0 | Velvetleaf plant response rating (velvetleaf; [6]): 0 | Velvetleaf plant response rating (velvetleaf; [7]): 0 | Plant response rating, Soybean (soybean; [2]): 1 | Soybean plant response rating (soybean; [3]): 3 | Plant response rating, Soybean (soybean; [4]): 3 | Soybean plant response rating (soybean; [5]): 0 | Soybean plant response rating (soybean; [6]): 0 | Soybean plant response rating (soybean; [7]): 0 | Giant foxtail plant response rating (giant foxtail; [1]): 0 | Plant response rating, Giant foxtail (giant foxtail; [2]): 0 | Giant foxtail plant response rating (giant foxtail; [3]): 0 | Plant response rating, Giant foxtail (giant foxtail; [4]): 0 | Giant foxtail plant response rating (giant foxtail; [5]): 0 | Giant foxtail plant response rating (giant foxtail; [6]): 0 | Giant foxtail plant response rating (giant foxtail; [7]): 7 | Plant response rating, S. Flatsedge (0 to 10 scale, 0 is no effect, 10 is complete control) (smallflower flatsedge; [8]): 0 | S. Flatsedge plant response rating (0 to 10 scale, 0 is no effect, 10 is complete control) (smallflower flatsedge; [9]): 0 | S. Flatsedge plant response rating (smallflower flatsedge; [10]): 0 | S. Flatsedge plant response rating (smallflower flatsedge; [11]): 0 | Rape plant response rating (rape; [1]): 0 | Plant response rating, Rape (rape; [2]): 0 | Rape plant response rating (rape; [3]): 0 | Plant response rating, Rape (rape; [4]): 0 | Rape plant response rating (rape; [5]): 0 | Rape plant response rating (rape; [6]): 0 | Rape plant response rating (rape; [7]): 0 | B. signalgrass plant response rating (surinam grass; [1]): 0 | Plant response rating, B. signalgrass (surinam grass; [2]): 0 | B. signalgrass plant response rating (surinam grass; [3]): 0 | Plant response rating, B. signalgrass (surinam grass; [4]): 0 | B. signalgrass plant response rating (surinam grass; [5]): 0 | B. signalgrass plant response rating (surinam grass; [6]): 0 | B. signalgrass plant response rating (0 to 10 scale, 0 is no effect, 10 is complete control) (surinam grass; Preemergence, Rate 250 g/ha): 0 | B. signalgrass plant response rating (surinam grass; [7]): 0 | Plant response rating, Sugarbeets (sugar beet; [2]): 0 | Sugarbeets plant response rating (sugar beet; [3]): 0 | Plant response rating, Sugarbeets (sugar beet; [4]): 0 | Sugarbeets plant response rating (sugar beet; [5]): 0 | Sugarbeets plant response rating (sugar beet; [6]): 0 | Sugarbeets plant response rating (sugar beet; [7]): 0 | Morningglory plant response rating (morningglory; [1]): 2 | Plant response rating, Morningglory (morningglory; [2]): 3 | Morningglory plant response rating (morningglory; [3]): 3 | Plant response rating, Morningglory (morningglory; [4]): 4 | Morningglory plant response rating (morningglory; [5]): 0 | Morningglory plant response rating (morningglory; [6]): 0 | Morningglory plant response rating (morningglory; [7]): 0 | Plant response rating, Wild oats (wild oat; [2]): 0 | Wild oats plant response rating (wild oat; [3]): 0 | Plant response rating, Wild oats (wild oat; [4]): 0 | Wild oats plant response rating (wild oat; [5]): 0 | Wild oats plant response rating (wild oat; [6]): 0 | Wild oats plant response rating (wild oat; [7]): 0 | Bedstraw plant response rating (bedstraw): 0 | Crabgrass plant response rating (crabgrass; [1]): 0 | Plant response rating, Crabgrass (crabgrass; [2]): 0 | Crabgrass plant response rating (crabgrass; [3]): 0 | Plant response rating, Crabgrass (crabgrass; [4]): 2 | Crabgrass plant response rating (crabgrass; [5]): 0 | Crabgrass plant response rating (crabgrass; [6]): 0 | Crabgrass plant response rating (crabgrass; [7]): 3 | Plant response rating, Ducksalad (0 to 10 scale, 0 is no effect, 10 is complete control) (duck salad; [8]): 0 | Ducksalad plant response rating (0 to 10 scale, 0 is no effect, 10 is complete control) (duck salad; [9]): 0 | Ducksalad plant response rating (duck salad; [10]): 0 | Ducksalad plant response rating (duck salad; [11]): 0 | Corn plant response rating (corn; [1]): 0 | Plant response rating, Corn (corn; [2]): 0 | Corn plant response rating (corn; [3]): 0 | Plant response rating, Corn (corn; [4]): 0 | Corn plant response rating (corn; [5]): 0 | Corn plant response rating (corn; [6]): 0 | Corn plant response rating (0 to 10 scale) (corn; Preemergence, Rate 250 g/ha): 0 | Corn plant response rating (corn; [7]): 0 | Plant response rating, Rice (0 to 10 scale, 0 is no effect, 10 is complete control) (rice; [8]): 0 | Rice plant response rating (0 to 10 scale, 0 is no effect, 10 is complete control) (rice; [9]): 0 | Rice plant response rating (rice; [10]): 0 | Rice plant response rating (rice; [11]): 0 | Nutsedge plant response rating (purple nutsedge; [1]): 0 | Plant response rating, Nutsedge (purple nutsedge; [2]): 0 | Nutsedge plant response rating (purple nutsedge; [3]): 0 | Plant response rating, Nutsedge (purple nutsedge; [4]): 0 | Nutsedge plant response rating (purple nutsedge; [5]): 0 | Nutsedge plant response rating (purple nutsedge; [6]): 0 | Nutsedge plant response rating (purple nutsedge; [7]): 0 | Blackgrass plant response rating (blackgrass; [1]): 0 | Plant response rating, Blackgrass (blackgrass; [2]): 0 | Blackgrass plant response rating (blackgrass; [3]): 0 | Plant response rating, Blackgrass (blackgrass; [4]): 0 | Blackgrass plant response rating (blackgrass; [5]): 0 | Blackgrass plant response rating (blackgrass; [6]): 0 | Blackgrass plant response rating (0 to 10 scale) (blackgrass; Preemergence, Rate 250 g/ha): 0 | Blackgrass plant response rating (blackgrass; [7]): 0 | Plant response rating, Wheat (wheat; [2]): 0 | Wheat plant response rating (wheat; [3]): 0 | Plant response rating, Wheat (wheat; [4]): 0 | Wheat plant response rating (wheat; [5]): 0 | Wheat plant response rating (wheat; [6]): 0 | Wheat plant response rating (wheat; [7]): 0 | Plant response rating, Barnyardgrass (0 to 10 scale, 0 is no effect, 10 is complete control) (bamyardgrass; [8]): 0 | Barnyardgrass plant response rating (0 to 10 scale, 0 is no effect, 10 is complete control) (bamyardgrass; [9]): 0 | Barnyardgrass plant response rating (bamyardgrass; [10]): 0 | Barnyardgrass plant response rating (bamyardgrass; [11]): 0
